Reference: patent publication US5093359A, “Primycin components and process for the separation of the antibiotic complex” (priority 1984, dated 1992)
Like-named read-outs stand apart in the source and are kept apart here.

What was measured:
[1] = tested on: Micrococcus luteus DSM.20030.; experiment: MIC, strain 20; type: cell-based
[2] = tested on: Pseudomonas fluorescens CCM.2115.; experiment: MIC, strain 23; conditions: 24 h
Experimental: (§1) The antimicrobial activity of the primycin complex and the components thereof is tested on different microorganism strains.
(§2) (Inoculation: 5 × 10^5 /ml, incubation at 37 C.° for

[3] = tested on: Micrococcus flavus ATCC.10240.; experiment: MIC, strain 19; type: cell-based
[4] = tested on: Staphylococcus aureus CCM.885.; experiment: MIC, strain 1; type: cell-based
[5] = tested on: Shigella sonnei CCM.1373.; experiment: MIC, strain 26; conditions: 24 h
Experimental: (§3) The table contains the MIC values (/μg/ml) measured on human pathogenic polyresistant strains.
as §1, §2

[6] = tested on: Bacillus licheniformis CCM.2205.; experiment: MIC, strain 16; type: cell-based
[7] = tested on: Staphylococcus aureus CCM.2326.; experiment: MIC, strain 4; type: cell-based
[8] = tested on: Bacillus subtilis ATTC.6633.; experiment: MIC, strain 13; type: cell-based
[9] = tested on: Pseudomonas acidoverans CCM.283; experiment: MIC, strain 24; conditions: CCM.283, 24 h
Experimental: as §1, §2

[10] = tested on: Streptococcus disgalactiae ATTC.9926; experiment: MIC, strain 12; type: cell-based
[11] = tested on: Staphylococcus aureus CCM.2514; experiment: MIC, strain 5; type: cell-based
[12] = tested on: Listeria monocytogenes CCM.5576.; experiment: MIC, strain 18; type: cell-based
[13] = tested on: Bacillus cereus CCM.2010.; experiment: MIC, strain 14; type: cell-based
[14] = tested on: Staphylococcus epidermidis CCM.2271; experiment: MIC, strain 7; type: cell-based
[15] = tested on: Sporosarcina ureae DSM.317; experiment: MIC, strain 21; conditions: DSM.317, 24 h
Experimental: as §1, §2

[16] = tested on: Salmonella typhimurium CCM.5445.; experiment: MIC, strain 27; conditions: Salmonella enterica, 24 h
Experimental: as §3, §1, §2

[17] = tested on: Pseudomonas aeruginosa CCM.1960.; experiment: MIC, strain 22; conditions: 24 h
Experimental: as §1, §2

[18] = tested on: Streptococcus agalactiae CCM.5153.; experiment: MIC, strain 10; type: cell-based
[19] = tested on: Staphylococcus aureus CCM.2317.; experiment: MIC, strain 3; type: cell-based
[20] = tested on: Bacillus licheniformis CCM.2182.; experiment: MIC, strain 15; type: cell-based
[21] = tested on: Staphylococcus aureus DSM.20231; experiment: MIC, strain 2; type: cell-based
[22] = tested on: Proteus vulgaris CCM.1799.; experiment: MIC, strain 25; conditions: 24 h
Experimental: as §1, §2

[23] = tested on: Staphylococcus aureus CCM.2515.; experiment: MIC, strain 6; type: cell-based
[24] = tested on: Escherichia coli DSM.30038.; experiment: MIC, strain 28; conditions: 24 h
Experimental: as §3, §1, §2

[25] = tested on: Bacillus subtilis CCM.1718.; experiment: MIC, strain 17; type: cell-based
[26] = tested on: Staphylococcus aureus Smith; experiment: MIC, strain 8; type: cell-based
[27] = tested on: Streptococcus faecalis CCM.1875.; experiment: MIC, strain 9; type: cell-based; conditions: Enterococcus faecalis
[28] = tested on: Streptococcus agalactiae CCM.5534.; experiment: MIC, strain 11; type: cell-based
[29] = ATTC.9926, 24 h, strain 12, Table O, 24 hours
[30] = ATTC.9926, 25 h, strain 12, Tables I-XIII, 25 hours
[31] = strain 20, Table O, 24 hours, read-out: MIC
[32] = strain 20, Tables I-XIII, 25 hours, read-out: MIC
[33] = strain 19, Table O, 24 hours, read-out: MIC
[34] = strain 19, Tables I-XIII, 25 hours, read-out: MIC
[35] = strain 1, Table O, 24 hours, read-out: MIC
[36] = strain 1, Tables I-XIII, 25 hours, read-out: MIC
[37] = strain 16, Table O, 24 hours, read-out: MIC
[38] = strain 16, Tables I-XIII, 25 hours, read-out: MIC
[39] = strain 4, Table O, 24 hours, read-out: MIC
[40] = strain 4, Tables I-XIII, 25 hours, read-out: MIC
[41] = 24 h, strain 13, Table O, 24 hours, read-out: MIC
[42] = CCM.2514, strain 5, Table O, 24 hours, read-out: MIC
[43] = CCM.2514, strain 5, Tables I-XIII, 25 hours, read-out: MIC
[44] = strain 18, Table O, 24 hours, read-out: MIC
[45] = strain 18, Tables I-XIII, 25 hours, read-out: MIC
[46] = 24 h, strain 14, Table O, 24 hours, read-out: MIC
[47] = CCM.2271, strain 7, Table O, 24 hours, read-out: MIC
[48] = CCM.2271, strain 7, Tables I-XIII, 25 hours, read-out: MIC
[49] = strain 10, Table O, 24 hours, read-out: MIC
[50] = strain 10, Tables I-XIII, 25 hours, read-out: MIC
[51] = strain 3, Table O, 24 hours, read-out: MIC
[52] = strain 3, Tables I-XIII, 25 hours, read-out: MIC
[53] = strain 15, Table O, 24 hours, read-out: MIC
[54] = strain 15, Tables I-XIII, 25 hours, read-out: MIC
[55] = Staphylococcus aureus, DSM.20231, 24 h, strain 2, Table O, 24 hours, read-out: MIC
[56] = strain 6, Table O, 24 hours, read-out: MIC
[57] = strain 6, Tables I-XIII, 25 hours, read-out: MIC
[58] = 24 h, strain 17, Table O, 24 hours, read-out: MIC
[59] = strain 8, Table O, 24 hours, read-out: MIC
[60] = strain 8, Tables I-XIII, 25 hours, read-out: MIC
[61] = strain 9, Table O, 24 hours, read-out: MIC
[62] = strain 9, Tables I-XIII, 25 hours, read-out: MIC
[63] = Streptococcus agalactiae, CCM.5534., 24 h, strain 11, Table O, 24 hours, read-out: MIC
[64] = Streptococcus agalactiae, CCM.5534., 25 h, strain 11, Tables I-XIII, 25 hours, read-out: MIC

Measured: MIC

CCCCC1C(=O)OC(C(C)C(O)CCCNC(=N)N)C(C)C=C(C)CCCCC(O)CC(O)CC(O)CC(O)CC(O)C(OC2OC(CO)C(O)C2O)C=C(C)C(O)CCCC(O)CCCC(O)CCC(C)C1O (stereo not drawn) [A1, chinopricin]
25 µg/mL: [2] | [9] | [17]
2.5 µg/mL: [10]; [29] | [10]; [30] | [27]; 24 h | [27]; 25 h
0.025 µg/mL: [15]
1 µg/mL: [28]; Streptococcus agalactiae, CCM.5534., 24 h | [28]; Streptococcus agalactiae, CCM.5534., 25 h
0.075 µg/mL: [3]; 24 h | [3]; 25 h
0.5 µg/mL: [12]; 24 h | [12]; 25 h
0.05 µg/mL: [1]; 24 h | [1]; 25 h | [21]; Staphylococcus aureus, DSM.20231, 24 h | [21]; Staphylococcus aureus, DSM.20231, 25 h
0.25 µg/mL: [4]; 24 h | [4]; 25 h | [6]; 24 h | [6]; 25 h | [7]; 24 h | [7]; 25 h | [8]; 24 h | [8]; 25 h | [11]; CCM.2514, 24 h | [11]; CCM.2514, 25 h | [13]; 24 h | [13]; 25 h | [19]; 24 h | [19]; 25 h | [20]; 24 h | [20]; 25 h | [23]; 24 h | [23]; 25 h | [25]; 24 h | [25]; 25 h | [26]; 24 h | [26]; 25 h
50 µg/mL: [5] | [16] | [22] | [24]
0.75 µg/mL: [14]; CCM.2271, 24 h | [14]; CCM.2271, 25 h | [18]; 24 h | [18]; 25 h

CCCCC1C(=O)OC(C(C)C(O)CCCNC(=N)N)C(C)C=C(C)CCCCC(O)CC(O)CC(O)CC(O)CC(O)CC=C(C)C(O)CCCC(O)CCCC(O)CCC(C)C1O (stereo not drawn) [B1, hydropricin]
2.5 µg/mL: [10]; [29] | [27]; [61] | [27]; [62]
0.1 µg/mL: [8]; [41] | [11]; [42] | [11]; [43] | [19]; [51] | [19]; [52] | [21]; [55] | [23]; [56] | [23]; [57]
0.075 µg/mL: [1]; [31] | [1]; [32]
50 µg/mL: [5] | [16] | [22] | [24]
0.025 µg/mL: [15]
1 µg/mL: [28]; [63] | [28]; [64]
25 µg/mL: [2] | [9] | [17]
0.25 µg/mL: [6]; [37] | [6]; [38] | [7]; [39] | [7]; [40] | [12]; [44] | [12]; [45] | [13]; [46] | [14]; [47] | [14]; [48] | [20]; [53] | [20]; [54] | [25]; [58] | [25]; 25 h, strain 17, Tables I-XIII, 25 hours, read-out: MIC
0.05 µg/mL: [3]; [33] | [3]; [34]
0.5 µg/mL: [4]; [35] | [4]; [36] | [18]; [49] | [18]; [50] | [26]; [59] | [26]; [60]

CCCCC1C(=O)OC(C(C)C(O)CCCNC(=N)N)C(C)C=C(C)CCCCC(O)CC(O)CC(O)CC(O)CC(O)C(O)C=C(C)C(O)CCCC(O)CCCC(O)CCC(C)C1O (stereo not drawn) [C1, oxypricin]
0.025 µg/mL: [6]; [37] | [6]; [38] | [8]; [41] | [8]; 25 h, strain 13, Tables I-XIII, 25 hours, read-out: MIC | [13]; [46] | [13]; 25 h, strain 14, Tables I-XIII, 25 hours, read-out: MIC | [14]; [47] | [14]; [48] | [20]; [53] | [20]; [54] | [23]; [56] | [23]; [57]
50 µg/mL: [5] | [16] | [22] | [24]
0.05 µg/mL: [7]; [39] | [7]; [40] | [11]; [42] | [11]; [43] | [19]; [51] | [19]; [52] | [21]; [55] | [21]; Staphylococcus aureus, DSM.20231, 25 h, strain 2, Tables I-XIII, 25 hours, read-out: MIC | [25]; [58] | [26]; [59] | [26]; [60]
0.2 µg/mL: [28]; strain 11, Tables I-XIII, 25 hours
25 µg/mL: [2] | [9] | [17]
0.075 µg/mL: [4]; [35] | [4]; [36] | [12]; [44] | [12]; [45] | [18]; [49] | [18]; [50]
0.25 µg/mL: [28]; [63] | [28]; [64]
0.01 µg/mL: [1]; [31] | [1]; [32] | [3]; [33] | [3]; [34] | [15]
0.1 µg/mL: [21]; strain 2, Tables I-XIII, 25 hours
0.5 µg/mL: [10]; [29] | [10]; [30]
0.75 µg/mL: [27]; [61] | [27]; [62]
